Converted amounts (≈) assume the structure as drawn. The source made the active and inactive calls. No cut-off for these calls is given here.
Experiments:
[1] = target: T1, Glucose-dependent insulinotropic receptor (Homo sapiens) (UniProt Q8TDV5); assay: (§1) Agonist activity at human GPR119 expressed in HEK293 cells assessed as cAMP accumulation after 30 mins by fluorescence analysis; type: functional, cell-based
T1 sequence (whole entry): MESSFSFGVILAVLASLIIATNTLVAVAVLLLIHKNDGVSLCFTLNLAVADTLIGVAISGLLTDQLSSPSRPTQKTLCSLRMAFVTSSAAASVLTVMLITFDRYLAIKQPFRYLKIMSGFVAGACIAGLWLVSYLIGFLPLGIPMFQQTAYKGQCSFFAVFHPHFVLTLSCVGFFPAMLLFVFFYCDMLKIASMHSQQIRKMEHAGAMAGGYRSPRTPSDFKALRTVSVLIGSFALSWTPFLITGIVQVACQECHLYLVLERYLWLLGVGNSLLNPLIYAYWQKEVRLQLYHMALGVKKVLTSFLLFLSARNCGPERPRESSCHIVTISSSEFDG

[2] = target: T2, Glucose-dependent insulinotropic receptor (Homo sapiens, UniProt Q8TDV5); assay: as §1; type: functional, cell-based
T2 sequence (Q8TDV5 whole entry): T1 sequence (whole entry)

[3] = AUC (0 to 6 hrs) in Sprague-Dawley rat plasma at 10 mg/kg, po; type: ADME, organism-based; design: time < 6 hr, dose 10 mg/kg, route oral
[4] = Solubility of compound at pH 7.4; type: physicochemical; details: buffer
Plasma [5] = assay: Fraction unbound in C57B1/6NCrl mouse plasma at 3 mg/kg, po after 1 hr; type: ADME, organism-based; details: in vivo
[6] = target: T3, Glucose-dependent insulinotropic receptor (Mus musculus) (UniProt Q7TQP3); assay: (§2) Agonist activity at mouse GPR119 expressed in HEK293 cells assessed as cAMP accumulation after 30 mins by fluorescence analysis; type: functional, cell-based
T3 sequence (whole entry): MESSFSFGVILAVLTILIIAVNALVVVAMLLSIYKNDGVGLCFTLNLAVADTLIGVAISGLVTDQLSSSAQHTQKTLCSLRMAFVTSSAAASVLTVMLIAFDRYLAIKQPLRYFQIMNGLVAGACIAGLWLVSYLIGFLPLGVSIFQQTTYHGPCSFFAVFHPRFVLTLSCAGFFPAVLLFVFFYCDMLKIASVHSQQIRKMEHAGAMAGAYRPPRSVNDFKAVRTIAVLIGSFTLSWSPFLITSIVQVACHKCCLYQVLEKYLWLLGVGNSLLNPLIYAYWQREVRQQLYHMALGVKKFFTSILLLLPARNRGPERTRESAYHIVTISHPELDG

[7] = target: T4, Glucose-dependent insulinotropic receptor (Mus musculus, UniProt Q7TQP3); assay: as §2; type: functional, cell-based
T4 sequence (Q7TQP3 whole entry): T3 sequence (whole entry)

Mus musculus [8] = assay: Decrease in blood glucose level in C57B1/6NCrl mouse at 3 mg/kg, po administered 30 mins prior to oral glucose challenge by glucose tolerance test relative to control; type: functional
Mus musculus [9] = assay: Decrease in blood glucose level in C57B1/6NCrl mouse at 3 mg/kg, po administered 30 mins prior to oral glucose challenge by glucose tolerance test; type: functional, organism-based
Plasma [10] = assay: Plasma concentration in C57B1/6NCrl mouse at 1 mg/kg, po; type: ADME, organism-based; details: in vivo
Mus musculus [11] = assay: Decrease in blood glucose level in C57B1/6NCrl mouse at 0.1 mg/kg, po administered 30 mins prior to oral glucose challenge by glucose tolerance test relative to control; type: functional
Mus musculus [12] = assay: Decrease in blood glucose level in C57B1/6NCrl mouse drug administered 30 mins prior to oral glucose challenge by glucose tolerance test; type: functional, organism-based
Plasma [13] = assay: Plasma concentration in C57B1/6NCrl mouse at 0.1 mg/kg, po; type: ADME, organism-based; details: in vivo
Plasma [14] = assay: Plasma concentration in C57B1/6NCrl mouse at 0.3 mg/kg, po; type: ADME, organism-based; details: in vivo
Plasma [15] = assay: Plasma concentration in C57B1/6NCrl mouse at 3 mg/kg, po; type: ADME, organism-based; details: in vivo

Compound | %max [1] | EC50 [2] | %max [6] | EC50 [7] | also measured
Cc1c(Nc2ccc(S(C)(=O)=O)cc2F)ncnc1OC1CC2COCC(C1)N2C(=O)OC1(C)CC1 (configuration not stated) | 87% | 70 nM | 79% | 511 nM | AUC(0-t) at 6 h [3]: 2.4 µM·h; solubility [4]: 3.4 µM (≈ 1.77 µg/mL); Cp(f) (Plasma [5]): 100 nM; inhibition in vivo at 3 mg/kg (Mus musculus [8]): 84%
CC1(OC(=O)N2CC3COCC(C2)C3Oc2cc(Nc3ccc(C#N)cc3Cl)ncn2)CC1 (configuration not stated) | 88% | 25 nM | 105% | 254 nM | AUC(0-t) at 6 h [3]: 1.19 µM·h; inhibition in vivo at 3 mg/kg (Mus musculus [8]): 78%
Cc1c(Nc2ccc(S(C)(=O)=O)cc2Cl)ncnc1OC1CC2COCC(C1)N2C(=O)OC(C)(C)C (configuration not stated) | 49% | 44 nM | 78% | 190 nM | Activity (Mus musculus [9]): Active
Cc1c(Nc2ccc(C#N)cc2Cl)ncnc1OC1CC2COCC(C1)N2S(=O)(=O)C1CC1 (configuration not stated) | 64% | 268 nM | 100% | 1600 nM | –
Cc1ncccc1Nc1ncnc(OC2C3COCC2CN(C(=O)OC(C)C)C3)c1C (stereo in doubt; 22) | – | > 10000 nM | – | – | –
Cc1c(Oc2ccc(C#N)cc2Cl)ncnc1OC1C2COCC1CN(C(=O)OC1(C)CC1)C2 (configuration not stated) | 78% | 16 nM | 143% | 128 nM | AUC(0-t) at 6 h [3]: 1.49 µM·h; inhibition in vivo at 3 mg/kg (Mus musculus [8]): 75%
COc1c(Nc2ccc(C#N)cc2F)ncnc1OC1C2COCC1CN(C(=O)OC1(C)CC1)C2 (configuration not stated) | 99% | 5 nM | 116% | 47 nM | AUC(0-t) at 6 h [3]: 1.43 µM·h; inhibition in vivo at 3 mg/kg (Mus musculus [8]): 78%
Cc1ncccc1Nc1ncnc(OC2C3COCC2CN(C(=O)OC(C)C)C3)c1C (stereo in doubt; 21) [listing 1 of 2 here] | 78% | – | – | – | –
Cc1ncccc1Nc1ncnc(OC2C3COCC2CN(C(=O)OC(C)C)C3)c1C (stereo in doubt; 21) [listing 2 of 2 here] | – | 65 nM | – | – | –

Continued, in another order:

%max [1] | EC50 [2] | %max [6] | EC50 [7] | Compound | also measured
52% | – | – | – | Cc1c(Nc2ccc(C#N)cc2Cl)ncnc1OC1C2COCC1CN(S(=O)(=O)C1CC1)C2 (stereo in doubt; 18) [listing 1 of 2 here] | –
– | 1210 nM | – | – | Cc1c(Nc2ccc(C#N)cc2Cl)ncnc1OC1C2COCC1CN(S(=O)(=O)C1CC1)C2 (stereo in doubt; 18) [listing 2 of 2 here] | –
54% | – | 34% | – | Cc1c(Nc2ccc(C#N)cc2Cl)ncnc1OC1CC2COCC(C1)N2C(=O)OC(C)(C)C (stereo in doubt; 14) [listing 1 of 2 here] | –
– | 20 nM | – | 140 nM | Cc1c(Nc2ccc(C#N)cc2Cl)ncnc1OC1C2COCC1CN(C(=O)OC(C)(C)C)C2 (stereo in doubt; 20) [listing 1 of 2 here] | –
83% | – | 69% | – | Cc1c(Nc2ccc(C#N)cc2Cl)ncnc1OC1C2COCC1CN(C(=O)OC(C)(C)C)C2 (stereo in doubt; 20) [listing 2 of 2 here] | –
– | 114 nM | – | 280 nM | Cc1c(Nc2ccc(C#N)cc2Cl)ncnc1OC1CC2COCC(C1)N2C(=O)OC(C)(C)C (stereo in doubt; 14) [listing 2 of 2 here] | –
65% | – | 110% | – | Cc1c(Nc2ccc(C#N)cc2Cl)ncnc1OC1C2COCC1CN(C(=O)OC(C)(C)C)C2 (stereo in doubt; 19) [listing 1 of 2 here] | –
– | 51 nM | – | 844 nM | Cc1c(Nc2ccc(C#N)cc2Cl)ncnc1OC1C2COCC1CN(S(=O)(=O)C1CC1)C2 (stereo in doubt; 17) [listing 1 of 2 here] | –
74% | 4 nM | 102% | 33 nM | Cc1c(Nc2ccc(C#N)cc2Cl)ncnc1OC1C2COCC1CN(C(=O)OC1(C)CC1)C2 (configuration not stated) | AUC(0-t) at 6 h [3]: 4.98 µM·h; solubility [4]: 6 µM (≈ 2.9 µg/mL); Cp(f) (Plasma [5]): 3 nM; inhibition in vivo at 3 mg/kg (Mus musculus [8]): 79%
38% | – | 57% | – | Cc1c(Nc2ccc(C#N)cc2Cl)ncnc1OC1CC2COCC(C1)N2C(=O)OC(C)(C)C (stereo in doubt; 15) [listing 1 of 2 here] | Activity (Mus musculus [9]): inactive
56% | – | 53% | – | Cc1c(Nc2ccc(C#N)cc2Cl)ncnc1OC1C2COCC1CN(S(=O)(=O)C1CC1)C2 (stereo in doubt; 17) [listing 2 of 2 here] | –
– | 7 nM | – | 28 nM | Cc1c(Nc2ccc(C#N)cc2Cl)ncnc1OC1C2COCC1CN(C(=O)OC(C)(C)C)C2 (stereo in doubt; 19) [listing 2 of 2 here] | –
– | 17 nM | – | 100 nM | Cc1c(Nc2ccc(C#N)cc2Cl)ncnc1OC1CC2COCC(C1)N2C(=O)OC(C)(C)C (stereo in doubt; 15) [listing 2 of 2 here] | –
88% | 7 nM | 99% | 43 nM | COc1c(Nc2ccc(C#N)cc2Cl)ncnc1OC1C2COCC1CN(C(=O)OC1(C)CC1)C2 (configuration not stated) | AUC(0-t) at 6 h [3]: 8.23 µM·h; concentration (Plasma [10]): 220 nM; inhibition in vivo at 0.1 mg/kg (Mus musculus [11]): 40%; solubility [4]: 30 µM (≈ 15 µg/mL); inhibition (Mus musculus [12]): Dose-dependent effect; concentration (Plasma [13]): 20 nM; concentration (Plasma [14]): 90 nM; concentration (Plasma [15]): 350 nM; inhibition in vivo at 3 mg/kg (Mus musculus [8]): 78%

From ChEMBL document CHEMBL3627686, “Discovery of the oxazabicyclo[3.3.1]nonane derivatives as potent and orally active GPR119 agonists” (Bioorg Med Chem Lett, 2015)
